From patent publication US6362211B1, “Polycyclic indanylimidazoles with alpha2 adrenergic activity” (Orion Corporation, priority 2000, dated 2002)

Test system: Alpha2 Adrenoceptors (alpha2AR)
Test: Antagonist activity on alpha2 adrenoceptors in rat vas deferens in vitro (electrically evoked twitch response)
Assay type: cell-based
Details: isolated rat vas deferens, field stimulation; antagonist given at least five minutes before alpha2AR agonist
Description: Antagonist Activity on Alpha2 Adrenoceptors (alpha2AR) in Rat Vas Deferens in Vitro
Rats were killed by CO2-suffocation. Vas deferentia were dissected out and both prostatic halves were removed to tissue chambers containing Krebs-solution of the following composition (mM): NaCl 118, KCl 4.7, CaCl2 2.5, KH2PO4 1.2, MgSO4 0.6, NaHCO3 25, glucose 11.1, aerated by 5% carbogen, temperature 37° C., pH 7.4. Propranolol […] and desipramine […] were added to prevent the possible effects on […] receptors and to prevent re-uptake of released norepinephrine, respectively. Preparations were tied to the bottom hooks of the incubation chambers and the to isometric force-displacement transducers above. Electrical stimulation was started after the equilibrium period/5 minutes under a resting tension of 0.5 g) by introducing field stimulation with the following parameters: twin-pulses, voltage 70 V, frequency 0.2 Hz, delay 5 ms, duration 2 ms. […] Inhibition of the electrically evoked contractions was measured as the response to alpha2AR agonists. Antagonist was administered into the incubation medium at least five minutes before agonist. Means±SEM of percentage inhibition were calculated in the absence and in the presence of antagonist and expressed as dose-response curves. In order to express the antagonist potency, pA2-value was calculated.

Row | Compound | Vas deferens Alpha2 antagonistic activity, pA2
1 | C=C1CCC2(c3c[nH]cn3)Cc3ccccc3C12 (stereo not shown) [2(a), 4-(3-Methylene-2,3,3a,8-tetrahydro-1H-cyclopenta[a]inden-8a-yl)-1H-imidazole] | pA2 = 7.8
2 | c1ccc2c(c1)CC1(c3c[nH]cn3)CCCCC21 (stereo not shown) [3(i), 4-(4b,5,6,7,8,9-Hexahydrofluoren-8a-yl)-1H-imidazole] | pA2 = 8.2
3 | c1ccc2c(c1)CC1(c3c[nH]cn3)CCCC21 (stereo not shown) [Example 1(e), 4-(2,3,3a,8-Tetrahydro-1H-cyclopenta[a]inden-8a-yl)-1H-imidazole] | pA2 = 8.4
4 | CC1CCC2(c3c[nH]cn3)Cc3ccccc3C12 (stereo not shown) [Example 2(b), 4-(3-Methyl-2,3,3a,8-tetrahydro-1H-cyclopenta[a]inden-8a-yl)-1H-imidazole] | pA2 = 7.4
5 | Fc1ccc2c(c1)C1CCCCC1(c1c[nH]cn1)C2 (stereo not shown) [Example 4, 4-(3-Fluoro-4b,5,6,7,8,9-hexahydrofluoren-8a-yl)-1H-imidazole] | pA2 = 7.4
6 | COc1ccc2c(c1)C1CCCCC1(c1c[nH]cn1)C2 (stereo not shown) [Example 5(a), 4-(3-Methoxy-4b,5,6,7,8,9-hexahydrofluoren-8a-yl)-1H-imidazole] | pA2 = 6.9
7 | Oc1ccc2c(c1)C1CCCCC1(c1c[nH]cn1)C2 (stereo not shown) [Example 5(b), 8a-(1H-Imidazol-4-yl)-5,6,7,8,8a,9-hexahydro-4bH-fluoren-3-ol] | pA2 = 7.7
8 | OCCOCCOc1ccc2c(c1)C1CCCCC1(c1c[nH]cn1)C2 (stereo not shown) [Example 6, 2-{2-[8a-(1H-Imidazol-4-yl)-5,6,7,8,8a,9-hexahydro-4bH-fluoren-3-yloxy]-ethoxy}-ethanol] | pA2 = 6.0
9 | c1ccc2c(c1)CC1(c3c[nH]cn3)C3CCC(CC3)C21 (stereo not shown) [Example 7(f), 4-(5,8-Ethano-4b,5,6,7,8,9-hexahydro-fluoren-8a-yl)-1H-imidazole] | pA2 = 5.3
10 | c1ccc2c(c1)CC1(c3c[nH]cn3)Cc3ccccc3C21 (stereo not shown) [Example 8, 4-(4b,10-Dihydro-9H-indeno[1,2-a]inden-9a-yl)-1H-imidazole] | pA2 = 7.4
